Assay in all cases: NCI-60 cell line screen, 48 h
In test [1] the test system is BT-549.
Test [2] deals with XF498.
Test [3] concerns SNB-78.
The subject of test [4] is M19-MEL.
The test system of test [5] is LXFL 529.
Test [6] relates to HOP-18.
The subject of test [7] is DMS-114.
Test [8] deals with DLD-1.
In test [9] the test system is RXF 631.

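In this assay, cells in 96-well plates receive the compound at five concentrations for 48 hours. Endpoints are linearly interpolated between the surrounding concentrations. GI50 is the concentration that inhibits growth by half.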 Active and inactive are the calls of the source. No stated cut-off is given here; in the data, active = GI50 up to about 1.1 µM and inactive = higher.

For the compound `CSc1nc(-c2ccccc2)[nH]c(=O)n1`, the GI50 in test [1] is > 100 µM (inactive).
Turning to `COC(=O)/C=C\C(C#N)(C#N)/N=C/c1ccc(C)cc1`, the GI50 in test [1] is 5.02 µM (inactive).
`Cc1nc2c(n1Cc1ccc(F)cc1)C(=O)c1ccccc1C2=O`: the GI50 in [2] was 29.9 µM (inactive); in test [3], > 100 µM (inactive); in test [4] it was 3.62 µM (inactive); in test [5], 13.5 µM (inactive).
`O=c1oc2ncccc2n1Cc1ccc([N+](=O)[O-])cc1`: the GI50 in test [1] is 38.1 µM (inactive).
For `CCC1(O)C(=O)OCc2c1cc1n(c2=O)Cc2cc3cc(OC)c(OC)cc3nc2-1` (stereo unspecified), the GI50 is 34.3 µM (inactive) in test [2], 56.8 µM (inactive) in test [6], 12.8 µM (inactive) in test [7] and > 100 µM (inactive) in test [5].
Consider `CCCN(CCCC(NC(C)=O)C(=O)NCc1ccccc1)C(=O)NC` (stereo unspecified), for which the GI50 in test [3], in [7], in [4], in test [8], in test [9] and in test [5] was > 100 µM (inactive) in each case.
As to `CC1=C(c2cc(C(=O)Nc3cccc(C(F)(F)F)c3)ncn2)Sc2ccccc2N1`, the GI50 in [2], in test [6], in [7], in test [4], in test [8] and in test [5] was > 100 µM (inactive) each time.
Consider `NC(=O)C[C@H](NC(=O)C1(NC(=O)[C@H](Cc2ccc(CP(=O)(O)O)cc2)NC(=O)C(=O)O)CCCCC1)C(=O)NCCCc1cccc2ccccc12`, for which the GI50 in test [1] was > 10 µM (inactive).
Take `Cc1ccc2c(c1)NC(c1ccc(C(=O)O)cc1)c1cccn1-2` (stereo unspecified): in test [1], the GI50 was 61.2 µM (inactive).
Consider `CC1(C)CC(=O)C(CC(C(=O)C(=O)Nc2cc(C(F)(F)F)ccc2Cl)C(=O)c2ccco2)C(=O)C1` (stereo unspecified), for which the GI50 in test [1] is > 100 µM (inactive).
The same measure, in the same setting: to `CC1=C(C)SC(=C2Sc3c(n(C)c(=O)n(C)c3=O)S2)S1` belongs 57.1 µM (inactive).
In the case of `NC(=S)N/N=C(/CC(=O)c1ccccc1)C(=O)Nc1ccc(Cl)c(Cl)c1`, the GI50 in test [6] is > 100 µM (inactive); in [3] it was > 100 µM (inactive); in test [7], 71.6 µM (inactive); in test [4] it was > 100 µM (inactive); in test [8], 83.6 µM (inactive); in test [5], 83.4 µM (inactive).
With `CC1C2=C(O)CC(C)(C)CC2=NC2=C1C(=O)CC(C)(C)C2` (stereo unspecified), in [1], the GI50 was > 100 µM (inactive).
For `CC1CC[C@@]2(OC1)O[C@H]1[C@H](O)[C@H]3[C@@H]4CC[C@H]5C[C@@H](OC6OC(CO)C(OC7OC(CO)C(O)C(OC8OCC(O)C(O)C8O)C7OC7OC(CO)C(O)C(O)C7OC7OC(CO)C(O)C(O)C7O)C(O)C6O)[C@H](O)C[C@]5(C)[C@H]4CC[C@]3(C)[C@H]1[C@@H]2C` (stereo partly specified), in test [1], the GI50 was > 10 µM (inactive).
In the case of `C=CCCCC1(C)CCCCNC1=O` (stereo unspecified), the GI50 in test [1] is > 10 µM (inactive).
`COC1=N[C@H](C(C)C)C(OC)=N[C@H]1Cc1ccc(C[C@@H]2N=C(OC)[C@@H](C(C)C)N=C2OC)s1`: the GI50 in [1] was > 100 µM (inactive).
`Cc1cc(C)c(C#N)c(SC(=S)NC(=O)c2ccccc2)n1`: the GI50 in [1] was > 100 µM (inactive).
Turning to `O=C(NCCNCCO)N/N=C/c1ccc([N+](=O)[O-])cc1`, the GI50 in test [1] was > 100 µM (inactive).
The same measure, in the same setting: to `Oc1ccccc1CNCc1nc2ccccc2[nH]1` belongs 75.7 µM (inactive).
On the same count and under the same terms, for `Oc1nc(-c2cccc(F)c2)nc2ccccc12` the value was > 46.9 µM (inactive); for `O=C(Nc1ccc(N2C(=O)CSC2c2ccccc2O)cc1)c1ccc(N2C(=O)CSC2c2ccccc2O)cc1` (stereo unspecified), 87.1 µM (inactive).
Regarding `c1ccc(C2=NOC3COc4ccccc4OCC23)cc1` (stereo unspecified), the GI50 in test [3], in test [7] and in test [5] was > 100 µM (inactive) in each case.
For `O=C(/C=C/c1ccccc1Cl)NC1C=Nc2ccc([N+](=O)[O-])cc2NC1` (stereo unspecified), the GI50 in test [2] is > 100 µM (inactive); in test [6], > 100 µM (inactive); in test [3], > 100 µM (inactive); in test [7], 48.4 µM (inactive); in test [4] it was 53.2 µM (inactive); in test [8], 48.6 µM (inactive). For the same compound, the GI50 in test [5] was 43.2 µM (inactive).
Turning to `CC(C)(C)OC(=O)NCCCCC1NC(=O)[C@@H]2Cc3c([nH]c4ccccc34)C(c3ccccc3)N2C1=O` (stereo partly specified), the GI50 in test [1] is 21.9 µM (inactive).
`O=C(/C=C/c1ccc2ccccc2c1)NCc1ccc(C(=O)NCc2ccccc2)cc1`: the GI50 in [1] is 32.9 µM (inactive).
`CC(=O)c1cc(C)n2c1CS[C@@H]2c1ccccc1`: the GI50 in test [1] was 37.2 µM (inactive).
Turning to `COc1cc(/C=C2/C(=O)N(C(=O)c3ccccc3O)N=C2C)cc(OC)c1OC`, the GI50 in test [2] was 1.9 µM (inactive); in [3], 0.277 µM (active); in [7], 0.682 µM (active); in test [4] it was 0.695 µM (active); in test [8], 0.484 µM (active); in test [5] it was 0.555 µM (active). Moreover, in test [1], the GI50 was 0.741 µM (active).
Turning to `COc1ccc(NC(=O)C(C)Oc2ccc(OCC3CCCCC3)cc2)cc1` (stereo unspecified), the GI50 is 85.7 µM (inactive) in test [2]; 50.9 µM (inactive) in test [3]; 46.7 µM (inactive) in [7]; > 100 µM (inactive) in test [4]; 64 µM (inactive) in test [8]; 51.4 µM (inactive) in [5].
Regarding `CN(C)C1(N(C)C)Oc2c(c(=O)n(C)c(=O)n2C)C(c2ccc(C(F)(F)F)cc2)C1(F)F` (stereo unspecified), in test [1], the GI50 is > 100 µM (inactive).
With `CC1(CCCCO)C=CC(S(=O)(=O)c2ccccc2)CC1` (stereo unspecified), in [1], the GI50 was 14.4 µM (inactive).
Regarding `CC(C)(C)OC(=O)CN1CCNCCN(CC(=O)OC(C)(C)C)CC1`, the GI50 in test [1] was > 100 µM (inactive).
In the case of `CCc1oc2ccc(OC)c3c2c1C=CC=C3`, the GI50 in test [3], in [4], in test [8] and in test [5] was > 100 µM (inactive) throughout.
Take `O=C1c2scc(-c3ccc(F)cc3)c2-n2cccc21`: the GI50 in [1] was 13.6 µM (inactive).
Consider `CC1(C)CC(C)(C)CC(O)(C2(O)CC(C)(C)CC(C)(C)C2)C1`, for which the GI50 in test [2], in test [7], in test [4] and in [5] was > 100 µM (inactive) each time.
For the compound `CCCCCCCOc1ccc(/C=C\c2cc[n+](CCCCCCCC[n+]3ccc(/C=C\c4ccc(OCCCCCCC)cc4)cc3)cc2)cc1`, the GI50 in [6] was 15.1 µM (inactive); in test [3] it was > 100 µM (inactive); in test [7], 21.6 µM (inactive); in [4], 21.9 µM (inactive); in test [8], 21.8 µM (inactive); in test [5], 13.3 µM (inactive).
Turning to `Oc1ccc(-c2nc(-c3cccnc3)c(-c3ccc(Cl)cc3)[nH]2)cc1O`, in test [1], the GI50 is 10 µM (inactive).
In the case of `COC(=O)C1=C(OC(=O)c2ccccc2)C(C(=O)OC)[C@@]2(O)[C@@H](C(=O)OC)[C@H](C)C[C@@H]1[C@@H]2C(=O)OC` (stereo partly specified), the GI50 in test [1] is 23.7 µM (inactive).
Still for that read-out and setting: for `CCOC(=O)C(C)NC(=O)C(C)NC(=O)C(C)NC(=O)C(C)NC(=O)C(C)NC(=O)OCc1ccccc1` (stereo unspecified) the value was > 100 µM (inactive).
As to `COc1ccc(/C=N/n2c(Cc3ccccc3)n[nH]c2=O)c(OC)c1`, the GI50 in test [1] is 8.2 µM (inactive).
Still for that read-out and setting: for `CCn1c(-c2ccc(/N=N/Nc3ccc(-c4n[nH]c(=S)n4CC)cc3)cc2)n[nH]c1=S` the value was 1.66 µM (inactive).
For the compound `O=S(=O)(c1ccccc1)C(CN1CCCCC1)S(=O)(=O)c1ccccc1`, the GI50 in test [2], in test [4], in test [8] and in test [5] was > 100 µM (inactive) in each case.
With `CCSC12OC3(CCCCCN3C1=O)C1C(=O)N(c3ccccc3)C(=O)C12` (stereo unspecified), in test [1], the GI50 was > 100 µM (inactive).
For the compound `COc1ccc2nccc(SCC(=O)O)c2c1`, in test [1], the GI50 was > 100 µM (inactive).
For the compound `CN(C)c1ccc(/C=C(\NC(=O)c2ccccc2)c2nc3ccc4c(c3[nH]2)C(=O)c2ccccc2C4=O)cc1`, the GI50 was 75.7 µM (inactive) in test [3]; 21.7 µM (inactive) in test [7]; > 100 µM (inactive) in test [4]; 9.48 µM (inactive) in test [8]; 34.7 µM (inactive) in test [9]; 39.6 µM (inactive) in test [5].
For the compound `COc1ccc(/C=N/CCC/N=C/c2ccc(OC)cc2O)c(O)c1`, the GI50 in test [1] was 48.9 µM (inactive).
For the compound `Cn1c(-c2ccccc2)c/c(=N\NS(C)(=O)=O)c2cc(S(=O)(=O)O)ccc21`, the GI50 in test [2], in [6], in test [3], in test [7], in [4] and in test [8] was > 100 µM (inactive) in each case. Also, the GI50 in test [5] was > 100 µM (inactive).
In the case of `NC(=S)NN=C1Cc2ccccc2C1`, the GI50 in test [1] is > 100 µM (inactive).
Regarding `CCN(CC)C(=S)SNCc1ccc(S(N)(=O)=O)cc1`, the GI50 in test [1] is 18.5 µM (inactive).
On to `COc1cc(/C=C2/SC(c3ccccc3)N(c3cc(Cl)ccc3Cl)C2=O)cc(OC)c1OC` (stereo unspecified), for which the GI50 in test [1] is > 100 µM (inactive).
On to `O=C1NC(N2CCCC(CO)C2)=N/C1=C\c1ccccc1` (stereo unspecified), for which, in [1], the GI50 was > 100 µM (inactive).
Regarding `COC1OC(=O)C(OC)C(OC)C1OC` (stereo unspecified), the GI50 in test [1] was 40.5 µM (inactive).
Turning to `CC1(C)C2CCC(=O)C1C(OCc1ccccc1)C2` (stereo unspecified), the GI50 in test [1] is 94 µM (inactive).
As for `COC([C@@H](OC(=O)c1ccccc1)[C@H](OC(=O)c1ccccc1)C(O)COC(=O)c1ccccc1)n1cc(C)c(=O)[nH]c1=O` (stereo partly specified), in test [1], the GI50 is 21.3 µM (inactive).
Consider `Cc1ccc(NC(=O)C(=O)C(C(=O)c2ccc3ccccc3c2)C2OC(=O)c3ccccc32)cc1C` (stereo unspecified), for which the GI50 in test [2] was 3.29 µM (inactive); in test [6], 0.743 µM (active); in [7] it was 9.35 µM (inactive); in [4], 6.34 µM (inactive); in test [8], 17.7 µM (inactive); in test [5] it was 8.36 µM (inactive).
As to `O=Cc1ccc(-c2cc(C=O)c(-c3cccs3)[nH]2)s1`, the GI50 in test [1] is 28.2 µM (inactive).
On to `NC(=S)NS(=O)(=O)c1ccc(F)cc1`, for which the GI50 in test [1] is > 100 µM (inactive).

These data come from ChEMBL document CHEMBL1201862, “PubChem BioAssay data set” (2004).
